Like-named read-outs stand apart in the source and are kept apart here. Some results are limits rather than exact numbers.

The results in this text go back to patent US6392049B1, “Process for preparing 2,4-dihydroxypyridine and 2,4-dihydroxy-3-nitropyridine” (Aventis Pharmaceuticals Inc., priority 1996, dated 2002).

For one experiment, the target named is T1, A1 receptor (Rattus norvegicus, UniProt P25099).
T1 construct: using a membrane preparation of whole rat brain; from tissue; host or cells: whole rat brain membranes
T1 sequence (P25099 1-326): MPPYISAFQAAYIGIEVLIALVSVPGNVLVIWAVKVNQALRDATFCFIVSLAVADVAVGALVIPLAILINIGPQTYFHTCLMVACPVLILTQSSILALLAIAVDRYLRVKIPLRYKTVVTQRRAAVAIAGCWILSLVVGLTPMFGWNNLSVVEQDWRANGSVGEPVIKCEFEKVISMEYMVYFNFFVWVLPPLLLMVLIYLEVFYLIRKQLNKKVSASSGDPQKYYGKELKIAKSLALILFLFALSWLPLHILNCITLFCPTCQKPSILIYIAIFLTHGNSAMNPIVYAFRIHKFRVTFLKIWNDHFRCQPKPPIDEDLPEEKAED
Kind of experiment: A1 adenosine receptor binding, displacement of 3H-CHA, whole rat brain membranes. The settings on record: 3H-CHA displacement, 25° C., 60 minutes. The method, then: Non-specific binding is assessed in the presence of 1 mM theophylline.
(§1) The assays are run in glass test tubes in duplicate at 25° C. Once the membranes are added, the tubes are vortexed and incubated at 25° C. for 60 minutes (A1 assay) or 90 minutes (A2 assay) on a rotary shaker. The assay tubes are vortexed halfway through the incubation and again near the end. The assays are terminated by rapid filtration through 2.4 cm GF/B filters using a Brandel Cell Harvestor. The test tubes are washed three times with cold 50 mM tris-HCl (pH 7.7 or 7.4), with filtration being completed within 15 seconds. The damp filter circles are placed in glass scintillation vials filled with 10 ml of Aquasol II (New England Nuclear). The vials are allowed to shake overnight on a rotary shaker and are placed into a liquid scintillation analyzer for two minute counts. IC50 values for receptor binding, i.e. the concentration at which a compound of Formula I displaced the radiolabeled standard, are obtained using a curve-fitting computer program (RS/1, Bolt, Beranek and Newman, Boston, Mass.).

A further experiment addresses T2, A2 receptor (Rattus norvegicus, UniProt P30543).
T2 construct: using membranes from rat brain striatum; from tissue; host or cells: rat brain striatum membranes
Description: A2 adenosine receptor binding, displacement of 3H-CGS 21680, rat brain striatum membranes. The settings on record: 3H-CGS 21680 displacement, rat brain striatum membranes, 25° C., 90 minutes; read-out: Adenosine Receptor Binding Activity/IC50 (nM) A2. As to the method:
Non-specific binding is assessed in the presence of 20 μm 2-chloroadenosine.
as §1

Another experiment deals with swine coronary arteries. Kind of experiment: In vitro vasorelaxation in isolated swine coronary arteries. The class given is cell-based. As to the method:
Swine coronary arteries are obtained from a local slaughter house, dissected carefully and cleaned of fat, blood and adhering tissue. Rings approximately 2-3 mm wide are cut and transferred to water-jacketed tissue baths (10 mL) filled with warm (37° C.), oxygenated (O2/CO2:95%/5%) Krebs-Henseleit buffer and mounted on L-shaped hooks between stainless steel rods and a force transducer. […] PGF2a, before being exposed to 3 μM PGF2a.

Where [1] appears, read: Sus scrofa, read-out: Vasorelaxation in Swine Coronary Artery/IC50 (μM).
The mark [2] stands for this setting: 50% reduction in tension of rings contracted with 3 μM PGF2a, read-out: Vasorelaxation in Swine Coronary Artery/IC50.

T2 sequence (P30543 whole entry): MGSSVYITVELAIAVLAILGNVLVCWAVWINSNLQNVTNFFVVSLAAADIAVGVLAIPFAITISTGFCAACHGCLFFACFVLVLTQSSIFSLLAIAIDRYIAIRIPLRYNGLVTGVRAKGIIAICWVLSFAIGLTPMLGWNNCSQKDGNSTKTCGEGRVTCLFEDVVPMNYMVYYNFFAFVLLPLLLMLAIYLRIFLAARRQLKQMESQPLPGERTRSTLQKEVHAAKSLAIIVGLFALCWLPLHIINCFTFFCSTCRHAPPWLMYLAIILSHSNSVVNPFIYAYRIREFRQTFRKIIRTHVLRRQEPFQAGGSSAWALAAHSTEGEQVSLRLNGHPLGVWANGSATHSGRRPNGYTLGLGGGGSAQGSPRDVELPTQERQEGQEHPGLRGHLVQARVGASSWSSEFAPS

Consider `CCNC(=O)C1CC(n2cnc3c(NCCc4nccs4)ncnc32)C(O)C1O` (racemic) [Example 25, (±)-N^6-[2-(2″-thiazolyl)ethyl]-carbocyclic adenosine-5′-N-ethyl carboxamide], for which the IC50 was 1260 nM on A1 receptor, 355 nM on A2 receptor and 0.64 µM in the experiment on swine coronary arteries (setting [1]).

Turning to `CCNC(=O)C1CC(n2cnc3c(NCCc4ccsc4)ncnc32)C(O)C1O` (racemic) [Example 28, (±)-N^6-[1-(thiopen-3-yl)ethan-2-yl]carbocyclic adenosine-5′-N-ethyl carboxamide], the IC50 at A1 receptor is 417 nM; at A2 receptor, more than 1000 nM.

As for `CCNC(=O)[C@H]1C[C@@H](n2cnc3c(N[C@@H](C)Cc4ccc(Cl)s4)ccnc32)[C@H](O)[C@@H]1O` (relative stereo) [Example 36, [1S-[1a,2b,3b,4a(S*)]]-4-[7-[[2-(5-chloro-2-thienyl)-1-methylethyl]amino]-3H-imidazo[4,5-b]pyridin-3-yl]-N-ethyl-2,3-dihydroxycyclopentanecarboxamide], the results for the IC50 on A1 receptor, at A2 receptor and with swine coronary arteries (setting [2]) were 8.8 nM, 43.4 nM and 0.493 µM, respectively.

Turning to `CCNC(=O)[C@H]1O[C@@H](n2cnc3c(NC4CC=CCC4c4cccs4)ncnc32)[C@H](O)[C@@H]1O` (single isomer, unassigned) [Example 5, N6-[trans-2-(thiophen-2-yl)cyclohex-4-en-1-yl]adenosine-5′-N-ethylcarboxamide], the IC50 was found to be 4.26 nM at A1 receptor, 91 nM on A2 receptor and 0.068 µM in the experiment on swine coronary arteries (setting [1]).

For `CCNC(=O)[C@H]1O[C@@H](n2cnc3c(NC4CC=CCC4c4cccs4)ncnc32)[C@H](O)[C@@H]1O` (single isomer, unassigned) [Example 22, N^6-[trans-2-(thiophen-2-yl)-cyclohex-4-en-1-yl]adenosine-5-N-ethyl carboxamide], the IC50 worked out at 2.69 nM at A1 receptor, 29.5 nM on A2 receptor and 0.1 µM with swine coronary arteries (setting [1]).

For `CCNC(=O)C1CC(n2cnc3c(NC(CC)Cc4sccc4Cl)ccnc32)C(O)C1O` (single isomer, unassigned) [Example 39, [1S-[1a,2b,3b,4a(S*)]]4-[7-[[2-(3-chloro-2-thienyl)-1-ethylethyl]amino]-3H-imidazo[4,5-b]pyridin-3-yl]-N-ethyl-2,3-dihydroxycyclopentane-carboxamide], the IC50 at A1 receptor stood at 3.98 nM; on A2 receptor it was 46.8 nM.

Turning to `CCNC(=O)C1CC(n2cnc3c(N[C@H](C)Cc4ccc(Cl)s4)ncnc32)C2OC(C)(C)OC12` (single isomer, unassigned; (-)) [6(1)], the IC50 was more than 1000 nM at A1 receptor, more than 1000 nM on A2 receptor and 19.1 µM with swine coronary arteries (setting [2]).

In the case of `CCNC(=O)C1CC(n2cnc3c(NC(C)Cc4cccs4)ncnc32)C(O)C1O` (single isomer, unassigned; (-)) [Example 27], the IC50 at A1 receptor came to 5.01 nM; on A2 receptor, 29.5 nM; in the experiment on swine coronary arteries (setting [1]), 0.043 µM.

In the case of `CCNC(=O)C1CC(n2cnc3c(N[C@H](CC)Cc4sccc4Cl)ncnc32)C(O)C1O` (single isomer, unassigned; (-)) [Example 34], the IC50 was found to be 1.6 nM on A1 receptor, 23 nM on A2 receptor and 0.072 µM with swine coronary arteries (setting [2]).

In the case of `OC[C@H]1O[C@@H](n2cnc3c(NCCSc4nc5ccccc5s4)ncnc32)[C@H](O)[C@@H]1O` [Example 10, N^6-[2-(2′-thiobenzothiazolyl)-ethyl]adenosine], the figures for the IC50 at A1 receptor and at A2 receptor were 3.8 nM and more than 1000 nM, respectively.

With `Cc1nc(CCNc2ncnc3c2ncn3[C@@H]2O[C@H](CO)[C@@H](O)[C@H]2O)cs1` [Example 14, N^6-[2-(2′-methyl-4′-thiazolyl)-ethyl]adenosine], the IC50 was 79.4 nM on A1 receptor and more than 1000 nM on A2 receptor.

On to `OC[C@H]1O[C@@H](n2cnc3c(NCCc4nc(-c5ccccc5)cs4)ncnc32)[C@H](O)[C@@H]1O` [Example 16, N^6-[2-(4′-phenyl-2′-thiazolyl)-ethyl]adenosine], for which the IC50 on A1 receptor is 1.7 nM; on A2 receptor it was more than 1000 nM.

For `CC(C)(Cc1cccs1)Nc1ncnc2c1ncn2[C@@H]1O[C@H](CO)[C@@H](O)[C@H]1O` [Example 17, N^6-[2-(1,1-dimethyl-2′-thiophenyl)ethyl]adenosine], the IC50 on A1 receptor turned out to be 67.6 nM; at A2 receptor, 5250 nM; in the experiment on swine coronary arteries (setting [2]) it was 18.8 µM.

`OC[C@H]1O[C@@H](n2cnc3c(NCc4nc(-c5ccccc5)cs4)ncnc32)[C@H](O)[C@@H]1O` [Example 19]: the IC50 at A1 receptor came out at 36 nM; at A2 receptor, 1000 nM; in the experiment on swine coronary arteries (setting [2]), 0.75 µM.

Turning to `CC(Cc1nccs1)Nc1ncnc2c1ncn2[C@@H]1O[C@H](CO)[C@@H](O)[C@H]1O` (stereo partly shown) [Example 20, N^6-[1-(thiazol-2-yl)prop-2-yl]-adenosine], the IC50 was determined as 3.98 nM on A1 receptor and 158 nM at A2 receptor.

Consider `CCC(Cc1ccc(Cl)s1)Nc1ncnc2c1ncn2[C@@H]1O[C@H](CO)[C@@H](O)[C@H]1O` (stereo partly shown) [Example 21, N^6-[1-(5″-chlorothien-2″-yl)-2-butyl]adenosine], for which the IC50 at A1 receptor came out at 0.09 nM; on A2 receptor, 14.8 nM.

For the compound `CCC(Cc1sccc1Cl)Nc1ncnc2c1ncn2[C@@H]1O[C@H](CO)[C@@H](O)[C@H]1O` (stereo partly shown) [Example 31, N^6-[1-ethyl-2-(3-chlorothien-2-yl)ethyl]adenosine], the IC50 at A1 receptor is 0.03 nM; at A2 receptor, 8.9 nM.

`C[C@H](Cc1sccc1Cl)Nc1ncnc2c1ncn2[C@@H]1O[C@H](CO)[C@@H](O)[C@H]1O` [Example 32, N^6-[1-methyl-2-(3-chlorothien-2-yl)ethyl]adenosine]: the IC50 at A2 receptor is 45 nM.

In the case of `CCNC(=O)[C@H]1C[C@@H](n2cnc3c(N[C@H](C)Cc4ccc(Cl)s4)[n+]([O-])cnc32)[C@H](O)[C@@H]1O` [Example 35, (2S)-2a,3a-dihydroxy-4β-[N6-[2-(5-chloro-2-thienyl)-(1R)-1-methylethyl]amino-9-adenyl]cyclopentane-1β-N-ethylcarboxamide-N^1-oxide], the IC50 on A1 receptor amounted to 1090 nM; on A2 receptor, 6350 nM; in the experiment with swine coronary arteries (setting [1]) it was 3.3 µM.

Regarding `CCNC(=O)[C@H]1C[C@@H](n2cnc3c(NC(CC)Cc4sccc4Cl)ccnc32)[C@H](O)[C@@H]1O` (stereo partly shown) [Example 37], the IC50 came to 16.2 nM on A1 receptor, 110 nM at A2 receptor and 0.45 µM with swine coronary arteries (setting [1]).

Consider `CCNC(=O)[C@H]1C[C@@H](n2cnc3c(N[C@H](CC)Cc4ccc(Cl)s4)ccnc32)[C@H](O)[C@@H]1O` [Example 41], for which the IC50 on A1 receptor was found to be 14.2 nM; on A2 receptor, 158 nM.

Take `CCNC(=O)[C@H]1C[C@@H](n2cnc3c(N[C@H](C)Cc4ccc(Cl)s4)ncnc32)[C@H](OC(=O)OC)[C@@H]1OC(=O)OC` [Example 42, (2S)-2a,3a-bis-methoxycarbonyloxy-4β-[N6-[2-(5-chloro-2-thienyl)-(1R)-1-methylethyl]amino-9-adenyl]cyclopentane-1β-N-ethylcarboxamide]: the figures for the IC50 on A1 receptor, on A2 receptor and in the experiment with swine coronary arteries (setting [1]) were more than 1000 nM, more than 10000 nM and 2.44 µM, respectively.

In the case of `CCNC(=O)[C@H]1C[C@@H](n2cnc3c(N[C@H](C)Cc4ccc(Cl)s4)ncnc32)[C@@H]2OC(OCC)O[C@@H]21` (stereo partly drawn) [Example 43, (2S)-2a,3a-dihydroxy-4β-[N6-[2-(5-chloro-2-thienyl)-(1R)-1-methylethyl]amino-9-adenyl]cyclopentane-1β-N-ethylcarboxamide ethoxymethylene acetal], the values for the IC50 on A1 receptor, at A2 receptor and in the experiment with swine coronary arteries (setting [1]) were 8430 nM, more than 10000 nM and 7.83 µM, respectively.

As to `CCNC(=O)[C@H]1C[C@@H](n2cnc3c(N[C@H](C)Cc4ccc(Cl)s4)ncnc32)[C@H](OC(=O)NC)[C@@H]1OC(=O)NC` [Example 45], the IC50 at A1 receptor was 6350 nM; on A2 receptor, more than 10000 nM; in the experiment with swine coronary arteries (setting [1]) it was 4.1 µM.

In the case of `CO[C@@H]1[C@H](O)[C@@H](CO)O[C@H]1n1cnc2c(N[C@H](C)Cc3sccc3Cl)ncnc21` [Example 47, N^6-[2-(3-chloro-2-thienyl)-(1R)-1-methylethyl]-2′-O-methyladenosine], the IC50 at A1 receptor is 23 nM; at A2 receptor, 2820 nM; in the experiment with swine coronary arteries (setting [1]), 5.7 µM.

In the case of “(2S)-2a,3a-dihydroxy-4β-[N6-[2-(5-chloro-2-thienyl)-(1R)-1-methylethyl]amino-9-adenyl]cyclopentane-1β-N-ethylcarboxamide-2,3-carbonate [Example 44]”, the results for the IC50 on A1 receptor, on A2 receptor and with swine coronary arteries (setting [2]) were 55 nM, 331 nM and 0.316 µM, respectively.
